Starred links: 1 amine or outer side, 2 acyl side, 3 side chain; linkers in the order of their positions; H or OH if unused. Non-standard residues stand in square brackets, D forms with d. Residues, ends and D or L forms follow the SMILES beside them. *: point of attachment. X1 = O=C([C@@H]1CCNc2c(N[*:1])cc3cc(O)c(O)cc3[n+]21)[*:2]; dOrn(N5-OH,N5-CHO) = N[C@H](CCCN(O)C=O)C(=O)O; Butanoyl(2-oxo,4-COOH) = O=C(O)CCC(=O)C(=O)*; d(aThr) = C[C@@H](O)[C@@H](N)C(=O)O; X2 = O=C1[C@@H](N*)CCCN1[O-]; X3 = O=C1[C@@H](N*)CCCN1O; Orn = NCCC[C@H](N)C(=O)O
What was measured:
[1] = biological target: T1, hNGAL (human lipocalin 2, parent wild type SEQ ID NO: 1) mutein SEQ ID NO: 19 (Homo sapiens, UniProt P80188, A60E/C107S/D97N/I61V/K154W/K93N/L123Q/L56V/L90R/Q48H/Q69G/R101E/R92H/S147K/S88E/W99S/Y120N/Y126M/Y152G/Y72P); assay: Solution binding ELISA
T1 construct: made in house; host or cells: E. coli
Experimental: (§5) The residual supernatants were discarded and 20 μl HRP-labeled anti-hNGAL antibody was added at a predetermined optimal concentration in PBS-T/BSA and incubated for 1 h at RT. […] After washing, 20 μl fluorogenic HRP substrate (QuantaBlu, Thermo) was added to each well, and the reaction was allowed to proceed for 15 to 60 minutes. The fluorescence intensity of every well on the plate was read using a fluorescence microplate reader (Tecan or Molecular Devices). […] Curve fitting was performed using GraphPad Prism 4 software.

[2] = biological target: T2, hNGAL (human lipocalin 2, parent wild type SEQ ID NO: 1) mutein SEQ ID NO: 20 (Homo sapiens, UniProt P80188, A60T/C107S/D97H/K145I/K154W/K93M/L123T/L90R/N116I/Q48H/Q69G/R101E/R92I/S147R/S88D/W99Y/Y120N/Y126Q/Y152M/Y72N); conditions: solution binding ELISA
T2 construct: made in house; host or cells: E. coli
Experimental: as §5

[3] = biological target: T3, hNGAL (human lipocalin 2, parent wild type SEQ ID NO: 1) mutein SEQ ID NO: 26 (Homo sapiens, UniProt P80188, A60E/C107S/D97N/E64D/I61V/K145N/K154W/K93N/L123V/L56V/L90R/N116K/Q48H/Q69G/R101E/R92H/S147K/S88E/W99S/Y120N/Y126M/Y152G/Y72P); assay: Solution binding ELISA
T3 construct: made in house; host or cells: E. coli
Experimental: as §5

[4] = biological target: T4, hNGAL (human lipocalin 2, parent wild type SEQ ID NO: 1) mutein SEQ ID NO: 27 (Homo sapiens, UniProt P80188, A60T/C107S/D97N/E64D/I61V/K154W/K93N/L123Q/L56V/L90R/Q48H/Q69G/R101E/R92H/S147K/S88E/W99S/Y126M/Y152V/Y72P); assay: Solution binding ELISA
T4 construct: made in house; host or cells: E. coli
Experimental: as §5

[5] = biological target: T5, hNGAL (human lipocalin 2, parent wild type SEQ ID NO: 1) mutein SEQ ID NO: 28 (Homo sapiens, UniProt P80188, A60T/C107S/D97N/E64D/I61V/K154W/L123Q/L56V/L90R/N116K/Q48H/Q69G/R101E/R92H/S147K/S88E/W99F/Y120H/Y126M/Y152A/Y72P); assay: Solution binding ELISA
T5 construct: made in house; host or cells: E. coli
Experimental: as §5

[6] = biological target: T6, hNGAL (human lipocalin 2, parent wild type SEQ ID NO: 1) mutein SEQ ID NO: 29 (Homo sapiens, UniProt P80188, A60Q/C107S/D97N/E64D/I61V/K154W/K93N/L123H/L56V/L90R/Q48H/Q69G/R101E/R92H/S147K/S88E/Y120N/Y126M/Y152G/Y72P); assay: Solution binding ELISA
T6 construct: made in house; host or cells: E. coli
Experimental: as §5

[7] = biological target: T7, hNGAL (human lipocalin 2, parent wild type SEQ ID NO: 1) mutein SEQ ID NO: 30 (Homo sapiens, UniProt P80188, A60T/C107S/D97H/K145I/K154W/K93F/L123M/L56V/L90R/Q48H/Q69G/R101D/R92I/S147R/S88D/W99Y/Y126Q/Y152I/Y72N); assay: Solution binding ELISA
T7 construct: made in house; host or cells: E. coli
Experimental: as §5

[8] = biological target: T8, hNGAL (human lipocalin 2, parent wild type SEQ ID NO: 1) mutein SEQ ID NO: 31 (Homo sapiens, UniProt P80188, A60T/C107S/D97H/K145I/K154W/K93R/L123T/L56V/L90R/Q48H/Q69G/R101D/R92I/S147R/S88D/W99Y/Y126Q/Y152I/Y72N); assay: Solution binding ELISA
T8 construct: made in house; host or cells: E. coli
Experimental: as §5

[9] = biological target: T9, hNGAL (human lipocalin 2, parent wild type SEQ ID NO: 1) mutein SEQ ID NO: 34 (Homo sapiens, UniProt P80188, A60T/C107S/D97H/K145I/K154W/K93R/L123T/L56V/L90R/N85D/Q48H/Q69G/R101D/R92I/S147R/S88D/T74A/W99Y/Y126Q/Y152I/Y72N); assay: Solution binding ELISA; conditions: Example 5
T9 construct: made in house; host or cells: E. coli
Experimental: as §5

[10] = biological target: T10, Fusion molecule SEQ ID NO: 134 (hNGAL muteins SEQ ID NOs: 36, 16, 53 and 62) (Homo sapiens, UniProt P80188, A60T/C107S/D97H, form not given/K145I/K154W/K93R/L123T/L56V/L90R/N85D/Q69G/R101D/R92I/S147R/S88D/T74A/W99Y/Y126Q/Y152I/Y72N); assay: Solution binding ELISA; conditions: binding to target in solution, tracer 0.1 nM, Table 11
T10 construct: made in house
T10 sequence (P80188 with tags, fused parts or gaps with the stated changes, form open): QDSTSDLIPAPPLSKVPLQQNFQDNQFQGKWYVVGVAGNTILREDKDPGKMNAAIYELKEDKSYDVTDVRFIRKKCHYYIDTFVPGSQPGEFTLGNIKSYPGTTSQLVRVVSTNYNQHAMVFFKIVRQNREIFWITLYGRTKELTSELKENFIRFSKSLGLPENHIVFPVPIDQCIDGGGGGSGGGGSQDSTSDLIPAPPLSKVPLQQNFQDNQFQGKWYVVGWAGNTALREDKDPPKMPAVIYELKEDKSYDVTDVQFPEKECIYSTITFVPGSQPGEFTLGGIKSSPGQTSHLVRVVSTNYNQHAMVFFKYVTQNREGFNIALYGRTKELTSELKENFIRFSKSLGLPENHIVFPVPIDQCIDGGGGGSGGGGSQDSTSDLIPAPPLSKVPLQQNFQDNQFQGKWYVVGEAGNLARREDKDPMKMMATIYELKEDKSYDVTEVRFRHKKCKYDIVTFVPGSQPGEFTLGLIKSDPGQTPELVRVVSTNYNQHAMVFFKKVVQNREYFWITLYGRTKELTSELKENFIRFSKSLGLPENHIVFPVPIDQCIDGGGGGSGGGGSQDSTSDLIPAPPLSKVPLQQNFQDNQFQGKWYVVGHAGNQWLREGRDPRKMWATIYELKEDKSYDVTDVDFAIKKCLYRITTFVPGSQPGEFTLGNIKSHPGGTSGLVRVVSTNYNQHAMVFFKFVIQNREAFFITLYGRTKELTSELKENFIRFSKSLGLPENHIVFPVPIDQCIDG

[11] = biological target: T11, hNGAL (human lipocalin 2, parent wild type SEQ ID NO: 1) mutein SEQ ID NO: 36 (Homo sapiens, UniProt P80188, A60T/C107S/D97H/K145I/K154W/K93R/L123T/L56V/L90R/N85D/Q69G/R101D/R92I/S147R/S88D/T74A/W99Y/Y126Q/Y152I/Y72N); assay: Surface plasmon resonance (Biacore T200); format: binding; conditions: SPR, 25° C., Table 2B
T11 construct: made in house; host or cells: E. coli
Experimental: (§6) In a Surface Plasmon Resonance (SPR) based assay a Biacore T200 instrument (GE Healthcare) was used to measure the binding affinity of muteins to pyoverdine I succinyl, -succinamide, -α-ketoglutaryl with complexed iron ion or to pyoverdine II succinyl, -succinamide, -α-ketoglutaryl with complexed iron ion or to pyoverdine III succinyl, -succinamide, -α-ketoglutaryl with complexed iron ion. Muteins selected for binding to pyoverdines and negative control (SEQ ID NO: 64) were biotinylated for 2 h at room temperature applying an appropriate excess of EZ-Link NHS-PEG4-Biotin (Thermo, Cat #21329) followed by separation of non-reacted Biotin using a Zebra Spin Desalting Plate (Thermo, Cat #21329) according to the manufactures instructions.
In the SPR affinity assay, biotinylated muteins and negative control were captured on a sensor chip CAP using the Biotin CAPture Kit (GE Healthcare): Sensor Chip CAP is pre-immobilized with an ssDNA oligo. Undiluted Biotin CAPture Reagent (streptavidin conjugated with the complementary ss-DNA oligo) was applied at a flow rate of 2 μl/min for 300 s. Subsequently, 1 μg/ml to 100 μg/mL of biotinylated muteins or negative control were applied for 300 s at a flow rate of 5 μl/min. […]
Applying a flow rate of 30 μl/min, a single cycle or multi cycle kinetics approach was used with a sample contact time of 120-180 s and a dissociation time of 900-2400 s. […] After ligand immobilization, for analysis using single cycle kinetics all 4-5 concentrations of Pvd were applied consecutively in ascending order before the dissociation was monitored. […] Data were evaluated with Biacore T200 Evaluation software (V 1.0). […]
In the SPR affinity assay, biotinylated muteins and negative control were captured on a sensor chip CAP using the Biotin CAPture Kit (GE Healthcare), wherein the Sensor Chip CAP is pre-immobilized with an ssDNA oligo. […] After ligand immobilization, the four concentrations of Pvd were applied consecutively in ascending order before the dissociation was monitored. […] Data were evaluated with Biacore T200 Evaluation software (V 1.0). […]

[12] = biological target: T12, Fusion molecule SEQ ID NO: 134 (hNGAL muteins SEQ ID NOs: 36, 16, 53 and 62) (Homo sapiens, UniProt P80188, A60T/C107S/D97H, form not given/K145I/K154W/K93R/L123T/L56V/L90R/N85D/Q69G/R101D/R92I/S147R/S88D/T74A/W99Y/Y126Q/Y152I/Y72N); assay: Surface plasmon resonance (Biacore T200); format: binding; conditions: Biacore, 25° C., Table 13
T12 construct: made in house; host or cells: HEK293
T12 sequence (P80188 with tags, fused parts or gaps with the stated changes, form open): as above

[13] = biological target: T13, hNGAL (human lipocalin 2, parent wild type SEQ ID NO: 1) mutein SEQ ID NO: 56 (Homo sapiens, UniProt P80188, A60F/C107S/D97A/I61H/K145G/K154V/K93A/L123M/L56M/L90P/N116A/Q48H/Q69S/R101I/R92W/S147W/S88H/W99K/Y120G/Y126W/Y152T/Y72P); assay: Solution binding ELISA
T13 construct: made in house; host or cells: E. coli
Experimental: as §5

[14] = biological target: T14, hNGAL (human lipocalin 2, parent wild type SEQ ID NO: 1) mutein SEQ ID NO: 57 (Homo sapiens, UniProt P80188, A60Y/C107S/D97R/I61W/K145L/K154N/K93R/L123Q/L56V/L90R/N116P/Q48H/Q69A/R101W/R92W/S147R/S88D/W99D/Y120E/Y126R/Y152A); assay: Solution binding ELISA
T14 construct: made in house; host or cells: E. coli
Experimental: as §5

[15] = biological target: lipocalin negative control SEQ ID NO: 64 (Homo sapiens, UniProt P80188, C107S/Q48H); assay: Surface plasmon resonance (Biacore T200); format: binding; conditions: SPR, analyte at 200 nM
Experimental: as §6
In the SPR affinity assay, biotinylated muteins and negative control were captured on a sensor chip CAP using the Biotin CAPture Kit (GE Healthcare): Sensor Chip CAP is pre-immobilized with an ssDNA oligo. Undiluted Biotin CAPture Reagent (streptavidin conjugated with the complementary ss-DNA oligo) was applied at a flow rate of 2 μl/min for 300 s. Subsequently, 1 μg/ml to 100 μg/mL of biotinylated muteins or negative control were applied for 300 s at a flow rate of 5 μl/min. The reference channel was loaded with Biotin CAPture Reagent only.
Applying a flow rate of 30 μl/min, a single cycle or multi cycle kinetics approach was used with a sample contact time of 120-180 s and a dissociation time of 900-2400 s. […] After ligand immobilization, for analysis using single cycle kinetics all 4-5 concentrations of Pvd were applied consecutively in ascending order before the dissociation was monitored. For analysis using multi cycle kinetics 4 dilutions of Pvd were applied, each followed a dissociation phase. All measurements were performed at 25° C. […] Data were evaluated with Biacore T200 Evaluation software (V 1.0). Double referencing was used. A 1:1 Binding model was used to fit the raw data.
Subsequently, 5 μg/mL of mutein or the negative control solution in 10 mM acetate pH 4.0 was applied at a flow rate of 10 μl/min until a high immobilization level of approximately 2000 RU was achieved. Residual activated groups were quenched with ethanolamine. The reference channels were treated with EDC/NHS following ethanolamine (blank immobilization).
In the SPR affinity assay, biotinylated muteins and negative control were captured on a sensor chip CAP using the Biotin CAPture Kit (GE Healthcare), wherein the Sensor Chip CAP is pre-immobilized with an ssDNA oligo. Undiluted Biotin CAPture Reagent (streptavidin conjugated with the complementary ss-DNA oligo) was applied at a flow rate of 2 μl/min for 300 s. Subsequently, 20 μg/ml to 100 μg/mL of biotinylated muteins or fusion molecule negative control were applied for 300 s at a flow rate of 5 μl/min. The reference channel was loaded with Biotin CAPture Reagent only. To determine the binding affinity, four dilutions of the respective Pvd were prepared in HBS-EP+ buffer (GE Healthcare) and applied to the chip surface. Applying a flow rate of 30 μl/min, a single cycle kinetics approach was used with a sample contact time of 180 s and a dissociation time of 1800-2400 s. […] After ligand immobilization, the four concentrations of Pvd were applied consecutively in ascending order before the dissociation was monitored. All measurements were performed at 25° C. […] Data were evaluated with Biacore T200 Evaluation software (V 1.0). Double referencing was preformed. A 1:1 binding model was used to fit the raw data.

[16] = biological target: hNGAL muteins from affinity optimization of SEQ ID NO: 55 (Homo sapiens, UniProt P80188); assay: Solution binding ELISA
Experimental: (§1) Solution binding of muteins was assayed by a “Solution binding ELISA”, the principle of which was as follows: a constant concentration of the tested mutein was incubated with variable concentrations of ligands (Pvd I s, sa, αKG+/−Fe/Pvd II s, sa, αKG+/−Fe/Pvd III s, sa, αKG+/−Fe/Pch+/−Fe) for 1 h. After this pre-incubation in solution, an aliquot of the mutein/ligand mixture was transferred to an ELISA plate with biotinylated Pvd I s (+Fe), Pvd II s (+Fe), Pvd III s (+Fe) or Pch immobilized via Neutravidin to measure the remaining concentration of free muteins. The concentration of free (non ligand-bound) muteins was determined via a quantitative ELISA setup.
(§2) In detail, a 384-well plate suitable for fluorescence measurements (Greiner FLUOTRAC™ 600, black flat bottom, high-binding) was coated with 20 μl of Neutravidin at a concentration of 5 μg/ml in PBS overnight at 4 C. After washing, the Neutravidin-coated wells were blocked with 100 μl blocking buffer containing 0.1% Tween 20 and 2% BSA (PBS-T/BSA) for 1 h at room temperature.
(§3) A fixed concentration of muteins was incubated in solution with varying concentrations of ligand (Pvd I s, sa, αKG+/−Fe/Pvd II s, sa, αKG+/−Fe/Pvd III s, sa, αKG+/−Fe/Pch+/−Fe), using a suitable starting concentration which was serially diluted at a 1:3 ratio down to the picomolar range in PBS-T/BSA. […] To allow for transformation of ELISA readout results into absolute free mutein concentrations, a standard curve containing varying concentrations of muteins was prepared in PBS-T/BSA and incubated for 20 min on the same ELISA plate as well.
(§4) The residual supernatants were discarded and 20 μl HRP-labeled anti-hNGAL antibody was added at a predetermined optimal concentration in PBS-T/BSA and incubated for 1 h at RT. […] The fluorescence intensity of every well on the plate was read using a fluorescence microplate reader (Tecan or Molecular Devices). To evaluate the data, free mutein concentration, c(mutein)free, was calculated based on the standard curve results, and plotted versus ligand concentration, c(Ligand). […]

[17] = biological target: hNGAL muteins from affinity optimization of SEQ ID NO: 56 (Homo sapiens, UniProt P80188); assay: Solution binding ELISA
Experimental: as §1, §2, §3, §4

T11 sequence (P80188 21-198 with the stated changes): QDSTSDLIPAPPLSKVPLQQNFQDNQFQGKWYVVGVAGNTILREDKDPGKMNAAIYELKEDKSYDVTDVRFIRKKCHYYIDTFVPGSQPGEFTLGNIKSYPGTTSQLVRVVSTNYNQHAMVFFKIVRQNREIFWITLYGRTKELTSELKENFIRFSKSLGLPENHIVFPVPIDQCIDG
T6 sequence (P80188 other isoform, or with tags, fused parts or gaps with the stated changes): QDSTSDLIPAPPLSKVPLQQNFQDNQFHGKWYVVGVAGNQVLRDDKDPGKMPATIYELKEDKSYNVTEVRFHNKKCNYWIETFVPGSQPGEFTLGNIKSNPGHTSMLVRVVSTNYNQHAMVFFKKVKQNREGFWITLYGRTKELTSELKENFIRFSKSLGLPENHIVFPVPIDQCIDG
Chain of hNGAL muteins from affinity optimization of SEQ ID NO: 55 (P80188 21-198, stated change not applied): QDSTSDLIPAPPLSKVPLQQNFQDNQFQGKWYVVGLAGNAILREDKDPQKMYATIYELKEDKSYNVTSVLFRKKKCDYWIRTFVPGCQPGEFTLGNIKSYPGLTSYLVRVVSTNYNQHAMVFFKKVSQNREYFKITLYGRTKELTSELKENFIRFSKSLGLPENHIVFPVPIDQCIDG
T9 sequence (P80188 other isoform, or with tags, fused parts or gaps with the stated changes): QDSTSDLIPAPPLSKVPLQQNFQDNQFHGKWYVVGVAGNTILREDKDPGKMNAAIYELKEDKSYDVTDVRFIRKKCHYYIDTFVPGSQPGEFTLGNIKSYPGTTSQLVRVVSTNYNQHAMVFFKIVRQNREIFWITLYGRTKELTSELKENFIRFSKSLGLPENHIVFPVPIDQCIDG
T5 sequence (P80188 other isoform, or with tags, fused parts or gaps with the stated changes): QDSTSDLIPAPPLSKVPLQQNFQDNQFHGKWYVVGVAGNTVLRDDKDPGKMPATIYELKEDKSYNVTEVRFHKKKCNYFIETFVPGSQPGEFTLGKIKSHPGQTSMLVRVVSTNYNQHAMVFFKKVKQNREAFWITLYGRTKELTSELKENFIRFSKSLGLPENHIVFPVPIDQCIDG
T8 sequence (P80188 other isoform, or with tags, fused parts or gaps with the stated changes): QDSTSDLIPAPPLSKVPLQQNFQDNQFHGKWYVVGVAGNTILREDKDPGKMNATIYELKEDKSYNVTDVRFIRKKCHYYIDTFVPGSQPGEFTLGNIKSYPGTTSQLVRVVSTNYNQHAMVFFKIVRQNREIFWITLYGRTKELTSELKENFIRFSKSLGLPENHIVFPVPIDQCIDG
T4 sequence (P80188 other isoform, or with tags, fused parts or gaps with the stated changes): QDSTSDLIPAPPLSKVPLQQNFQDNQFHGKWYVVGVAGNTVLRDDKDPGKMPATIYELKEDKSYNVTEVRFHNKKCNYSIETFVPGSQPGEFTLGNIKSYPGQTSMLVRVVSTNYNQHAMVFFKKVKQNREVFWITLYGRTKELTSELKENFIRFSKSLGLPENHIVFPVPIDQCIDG
T13 sequence (P80188 21-198 with the stated changes): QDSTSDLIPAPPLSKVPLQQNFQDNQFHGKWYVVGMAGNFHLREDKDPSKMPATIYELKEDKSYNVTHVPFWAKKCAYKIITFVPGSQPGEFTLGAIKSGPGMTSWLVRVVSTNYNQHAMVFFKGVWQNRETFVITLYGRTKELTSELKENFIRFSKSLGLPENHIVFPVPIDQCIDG
T14 sequence (P80188 21-198 with the stated changes): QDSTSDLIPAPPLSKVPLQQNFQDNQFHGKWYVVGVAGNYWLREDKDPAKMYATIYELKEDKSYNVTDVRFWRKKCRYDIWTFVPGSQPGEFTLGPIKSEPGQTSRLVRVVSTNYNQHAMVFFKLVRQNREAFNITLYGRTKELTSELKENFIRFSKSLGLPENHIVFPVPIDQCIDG
T2 sequence (P80188 other isoform, or with tags, fused parts or gaps with the stated changes): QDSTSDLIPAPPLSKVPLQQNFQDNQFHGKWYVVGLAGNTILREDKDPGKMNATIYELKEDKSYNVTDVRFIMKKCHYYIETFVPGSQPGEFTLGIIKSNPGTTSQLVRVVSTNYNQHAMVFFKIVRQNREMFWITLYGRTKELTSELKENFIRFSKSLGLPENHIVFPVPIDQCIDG
T1 sequence (P80188 other isoform, or with tags, fused parts or gaps with the stated changes): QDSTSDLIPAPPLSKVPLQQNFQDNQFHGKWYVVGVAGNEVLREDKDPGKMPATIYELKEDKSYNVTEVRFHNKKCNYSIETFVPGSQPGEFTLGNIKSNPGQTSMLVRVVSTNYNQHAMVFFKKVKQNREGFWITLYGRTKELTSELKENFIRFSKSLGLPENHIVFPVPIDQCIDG
T7 sequence (P80188 other isoform, or with tags, fused parts or gaps with the stated changes): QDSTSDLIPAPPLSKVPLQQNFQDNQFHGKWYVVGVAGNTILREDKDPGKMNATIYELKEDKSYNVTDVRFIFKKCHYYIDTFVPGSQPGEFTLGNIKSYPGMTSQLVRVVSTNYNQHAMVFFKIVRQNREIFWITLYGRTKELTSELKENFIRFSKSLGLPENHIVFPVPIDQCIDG
T3 sequence (P80188 other isoform, or with tags, fused parts or gaps with the stated changes): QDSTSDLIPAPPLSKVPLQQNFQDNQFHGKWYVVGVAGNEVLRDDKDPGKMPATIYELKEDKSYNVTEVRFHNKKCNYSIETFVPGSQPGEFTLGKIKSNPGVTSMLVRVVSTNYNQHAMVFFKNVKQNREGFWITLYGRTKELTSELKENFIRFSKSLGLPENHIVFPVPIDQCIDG
Chain of lipocalin negative control SEQ ID NO: 64 (P80188 21-198 Q48H/C107S): as the sequence (P80188 21-198, stated change not applied) above, with Q28H, C87S counted along it
Chain of hNGAL muteins from affinity optimization of SEQ ID NO: 56 (P80188 21-198, stated change not applied): as the sequence (P80188 21-198, stated change not applied) above

**Q.** For `C[C@@H](O)[C@@H](NC(=O)CNC(=O)[C@H](CCCN)NC(=O)[C@@H](CCCN([O-])C=O)NC(=O)[C@@H](CO)NC(=O)[C@@H]1CCNc2c(NC(=O)C(=O)CCC(=O)O)cc3cc([O-])c([O-])cc3[n+]21)C(=O)N[C@@H](CO)C(=O)N[C@H]1CCCN([O-])C1=O.[Fe+3]` [Pvd II aKG (+Fe), Pvd type II α-ketoglutaryl] ({Butanoyl(2-oxo,4-COOH)}-[X1][dS][dOrn(N5-OH,N5-CHO)][Orn]G[d(aThr)]S-X2), which IC50 [1] is on record?
**A.** 21 nM

**Q.** And the IC50 [2]?
**A.** 85 nM

**Q.** And the IC50 [3]?
**A.** 1.3 nM

**Q.** What about the IC50 [4] of the same molecule?
**A.** 1.97 nM

**Q.** And the IC50 [5]?
**A.** 2.25 nM

**Q.** And the IC50 [6]?
**A.** 1.9 nM

**Q.** What about the IC50 [7] of the same molecule?
**A.** 3 nM

**Q.** And the IC50 [8]?
**A.** 1.1 nM

**Q.** What about the IC50 [9] of the same molecule?
**A.** 1.6 nM

**Q.** And the IC50 [10]?
**A.** 0.88 nM

**Q.** And the Kd [11]?
**A.** 1.97 nM

**Q.** What about the koff [11] of the same molecule?
**A.** 5.62e-05 s⁻¹

**Q.** What about the kon [11] of the same molecule?
**A.** 28600 M⁻¹ s⁻¹

**Q.** What about the Kd [12] of the same molecule?
**A.** 1.19 nM

**Q.** For `C[C@@H](O)[C@@H](NC(=O)CNC(=O)[C@H](CCCN)NC(=O)[C@@H](CCCN(O)C=O)NC(=O)[C@@H](CO)NC(=O)[C@@H]1CCNc2c(NC(=O)C(=O)CCC(=O)O)cc3cc(O)c(O)cc3[n+]21)C(=O)N[C@@H](CO)C(=O)N[C@H]1CCCN(O)C1=O` [Pvd II aKG (−Fe), Pvd type II α-ketoglutaryl] ({Butanoyl(2-oxo,4-COOH)}-[X1][dS][dOrn(N5-OH,N5-CHO)][Orn]G[d(aThr)]S-X3), which IC50 [1] is on record?
**A.** 34 nM

**Q.** What about the IC50 [2] of the same molecule?
**A.** 89 nM

**Q.** And the IC50 [3]?
**A.** 0.75 nM

**Q.** And the IC50 [4]?
**A.** 1.4 nM

**Q.** What about the IC50 [5] of the same molecule?
**A.** 1.65 nM

**Q.** And the IC50 [6]?
**A.** 1.6 nM

**Q.** And the IC50 [7]?
**A.** 2.85 nM

**Q.** What about the IC50 [8] of the same molecule?
**A.** 0.64 nM

**Q.** And the IC50 [9]?
**A.** 1.2 nM

**Q.** And the IC50 [10]?
**A.** 0.81 nM

**Q.** And the Kd [12]?
**A.** 3.27 nM

**Q.** How did the “affinity (in words)” value [13] turn out when `CN1C([C@H]2CSC(c3ccccc3O)=N2)SC[C@H]1C(=O)O.[Fe+3]` (stereo partly drawn) [pch (+Fe), pyochelin] was run?
**A.** two- to three digit nM affinity

**Q.** What about the “affinity (in words)” value [14] of the same molecule?
**A.** two- to three digit nM affinity

**Q.** And the binding [15]?
**A.** absence of binding

**Q.** And the “affinity (in words)” value [16]?
**A.** single digit nM affinity

**Q.** What about the “affinity (in words)” value [17] of the same molecule?
**A.** no or weak affinity

**Q.** Which “affinity (in words)” value [13] does the source give for `CN1C([C@H]2CSC(c3ccccc3O)=N2)SC[C@H]1C(=O)O` (stereo partly drawn) [pch (−Fe), pyochelin] here?
**A.** weak affinity or not at all

**Q.** And the “affinity (in words)” value [14]?
**A.** weak affinity or not at all

**Q.** And the improved affinity ([16]; compared with SEQ ID NO: 55)?
**A.** more than 75 fold

— patent US10947284B2, “Fusion molecules” (Pieris Pharmaceuticals GMBH, priority 2015, dated 2021)
